Columns and labels:
[1] = target: purified human, His-tagged PRC2 complex (Homo sapiens (Human), UniProt O75530); experiment: Hot Spot HMT assay, inhibition of PRC2 enzymatic activity; assay type: biochemical; settings: 10 nM PRC2 complex, 1 μM 3H-SAM, core histone H3, 10-point dose-response
Summary of the method: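 Methyl transfer from 1 μM tritiated SAM onto 0.05 mg/ml core histone H3, catalysed by 10 nM His/Flag-tagged human PRC2 holoenzyme, was run 1 hr at 30° C after a 20 min compound preincubation. Serial dilutions began at 1.0 μM; product captured on filters and counted.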

[2] = tested on: bone marrow derived CD34+ cells differentiated into erythroid progenitor cells; experiment: Percentage of F cells (fetal hemoglobin containing cells) by flow cytometry in differentiated CD34+ cells; assay type: cell-based, human; settings: donors A and B, 14-day differentiated cells, 7-day treatment
Excerpt: (§1) Cell Culture and differentiation protocol. Human bone marrow derived CD34+ cells from healthy donors were purchased from StemCell (#70002.2). The CD34+ cells were differentiated using the STEMdiff™ Erythroid kit (StemCell #100-0074) according to manufacturer's instructions. The CD34+ cells were differentiated for 14 days, and the differentiation medium consisted of StemSpan™ SFEM II media and 10% of STEMdiff™ Erythroid Supplement E2 (10×). The CD34+ cells were thawed and plated in a 12-well plate (Corning #3512) at a density of 40,000 cells/well in 1 mL of differentiation media. 100 μL of STEMdiff™ Erythroid Supplement E2 (10×) was added to each well on Day 2, 4, 9 and 11 during differentiation. On day 7, cells were passaged and replated at a density of 167,000 cells/well in a 12-well plate. Flow cytometry was performed every 7 days to assess the stages of differentiation using anti-human CD71 and anti-human glycophorin A (CD235a) antibody (StemCell #60106AZ; #60152FI).
(§2) Treatment of differentiated CD34+ cells with compound Example 32 or hydroxyurea (HU). After 14 days of differentiation, cells were plated in a 12-well plate at a density of 150,000 cells/well in 1 mL differentiation media in quadruplets. The next day, cells were treated with vehicle, 7 concentrations of compound Example 32 in concentrations ranging from 15.625 nM to 1 μM ([…] serial dilution) and 20 μM of HU. 100 μL of STEMdiff™ Erythroid Supplement E2 (10×) was added to each well on Day 2 and 4. Cells were treated with vehicle, compound Example 32, or HU for 7 days and were then harvested for RT-qPCR and flow cytometry.
Flow Cytometry. The cell pellets harvested for flow cytometry analysis were collected in a V-shaped 96-well polypropylene plate (ThermoFisher #249944). The cells were washed with PBS and resuspended in 100 μL of PBS. The cells were first stained with eFluor 450 viability dye (diluted 1:250 in cold PBS; Invitrogen #65-0863-14) for 5 minutes on ice in the dark followed by incubation in Fc receptor blocking solution for 10 minutes (BioLegend #422302). […] Cells were washed twice and resuspended in FACS buffer and then analyzed by flow cytometry. Data was acquired using SONY SA3800 cytometer (software version 2.0.4.13263) and analyzed using FlowJo.
Bone marrow derived CD34+ cells from two healthy human donors (donor A and donor B) were differentiated into erythroid progenitor cells (erythroblasts) expressing Glycophorin A and CD71. Fourteen-day differentiated cells were then treated with vehicle (veh), different concentrations of compound Example 32, or 20 μM HU for 7 days and cells were analyzed for increase in fetal hemoglobin levels at both mRNA and protein levels. […]

HBG1 mRNA = HBG1 mRNA levels by RT-qPCR in differentiated CD34+ cells; assay type: cell-based, human; settings: 7-day treatment, normalized to RPL27, relative to vehicle
Excerpt: as §1, §2
(§3) RNA extraction and RT-qPCR analysis. The cell pellets harvested for mRNA analysis were first washed once with PBS and then resuspended in 600 μL of RLT lysis buffer (from the Qiagen kit) supplemented with 1% of beta-mercaptoethanol (Sigma-Aldrich #M6250). […] The extracted RNA was then quantified using a NanoDrop™ 8000 Spectrophotometer (ThermoFisher #ND8000-GL, software version 2.3.2). […]

HBG2 mRNA = HBG2 mRNA levels by RT-qPCR in differentiated CD34+ cells; assay type: cell-based, human; settings: 7-day treatment, normalized to RPL27, relative to vehicle
Excerpt: as §1, §2, §3

purified human, His-tagged PRC2 complex, sequence (O75530 whole entry): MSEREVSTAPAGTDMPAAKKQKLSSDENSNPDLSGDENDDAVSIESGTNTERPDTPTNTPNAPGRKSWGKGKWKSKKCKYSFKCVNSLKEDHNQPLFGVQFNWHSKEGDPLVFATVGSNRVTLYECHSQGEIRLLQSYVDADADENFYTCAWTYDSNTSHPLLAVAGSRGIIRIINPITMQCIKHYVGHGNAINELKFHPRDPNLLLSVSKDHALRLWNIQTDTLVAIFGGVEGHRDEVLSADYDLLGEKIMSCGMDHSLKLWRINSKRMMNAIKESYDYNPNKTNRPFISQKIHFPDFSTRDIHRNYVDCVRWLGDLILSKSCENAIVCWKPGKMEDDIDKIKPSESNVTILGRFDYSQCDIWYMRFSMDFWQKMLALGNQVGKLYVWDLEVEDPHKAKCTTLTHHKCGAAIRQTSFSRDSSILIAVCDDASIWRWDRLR
purified human, His-tagged PRC2 complex, sequence (Q15910 whole entry partner): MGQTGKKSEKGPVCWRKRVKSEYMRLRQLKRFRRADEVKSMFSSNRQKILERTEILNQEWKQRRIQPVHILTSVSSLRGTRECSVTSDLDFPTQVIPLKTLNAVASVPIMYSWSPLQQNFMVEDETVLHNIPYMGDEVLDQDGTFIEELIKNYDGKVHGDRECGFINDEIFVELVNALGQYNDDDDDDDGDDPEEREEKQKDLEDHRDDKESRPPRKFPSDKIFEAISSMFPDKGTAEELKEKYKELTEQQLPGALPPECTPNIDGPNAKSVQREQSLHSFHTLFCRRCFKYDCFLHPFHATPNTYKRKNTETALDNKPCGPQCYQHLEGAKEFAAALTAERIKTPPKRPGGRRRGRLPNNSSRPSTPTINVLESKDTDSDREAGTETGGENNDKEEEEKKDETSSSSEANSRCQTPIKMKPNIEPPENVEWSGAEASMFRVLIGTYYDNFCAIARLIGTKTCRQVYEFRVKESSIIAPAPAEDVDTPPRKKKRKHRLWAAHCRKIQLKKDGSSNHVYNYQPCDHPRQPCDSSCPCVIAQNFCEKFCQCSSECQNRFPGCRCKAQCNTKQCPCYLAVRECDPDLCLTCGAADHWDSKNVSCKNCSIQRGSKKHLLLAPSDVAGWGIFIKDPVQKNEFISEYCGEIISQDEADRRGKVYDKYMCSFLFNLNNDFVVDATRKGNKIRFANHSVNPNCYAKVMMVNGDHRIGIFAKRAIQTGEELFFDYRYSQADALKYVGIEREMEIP
purified human, His-tagged PRC2 complex, sequence (Q15022 whole entry partner): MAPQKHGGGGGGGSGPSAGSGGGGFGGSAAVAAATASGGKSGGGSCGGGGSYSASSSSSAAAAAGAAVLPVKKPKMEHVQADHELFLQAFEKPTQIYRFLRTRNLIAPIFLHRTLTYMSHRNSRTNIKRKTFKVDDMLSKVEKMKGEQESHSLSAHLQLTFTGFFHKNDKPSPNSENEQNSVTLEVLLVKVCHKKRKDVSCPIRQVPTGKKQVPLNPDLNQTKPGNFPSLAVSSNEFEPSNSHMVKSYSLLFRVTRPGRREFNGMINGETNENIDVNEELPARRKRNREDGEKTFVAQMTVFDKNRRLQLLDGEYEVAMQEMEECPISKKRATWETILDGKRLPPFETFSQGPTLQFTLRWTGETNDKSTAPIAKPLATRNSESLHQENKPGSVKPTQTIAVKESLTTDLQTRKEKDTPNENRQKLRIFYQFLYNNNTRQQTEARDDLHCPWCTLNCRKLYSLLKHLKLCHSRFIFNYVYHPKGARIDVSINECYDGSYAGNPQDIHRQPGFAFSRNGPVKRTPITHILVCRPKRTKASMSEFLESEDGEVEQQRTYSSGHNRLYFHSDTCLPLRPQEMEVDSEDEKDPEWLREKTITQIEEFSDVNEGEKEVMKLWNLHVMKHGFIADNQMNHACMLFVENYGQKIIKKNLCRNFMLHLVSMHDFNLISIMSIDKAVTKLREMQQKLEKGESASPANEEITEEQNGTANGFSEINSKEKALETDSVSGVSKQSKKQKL
purified human, His-tagged PRC2 complex, sequence (Q6ZN18 whole entry partner): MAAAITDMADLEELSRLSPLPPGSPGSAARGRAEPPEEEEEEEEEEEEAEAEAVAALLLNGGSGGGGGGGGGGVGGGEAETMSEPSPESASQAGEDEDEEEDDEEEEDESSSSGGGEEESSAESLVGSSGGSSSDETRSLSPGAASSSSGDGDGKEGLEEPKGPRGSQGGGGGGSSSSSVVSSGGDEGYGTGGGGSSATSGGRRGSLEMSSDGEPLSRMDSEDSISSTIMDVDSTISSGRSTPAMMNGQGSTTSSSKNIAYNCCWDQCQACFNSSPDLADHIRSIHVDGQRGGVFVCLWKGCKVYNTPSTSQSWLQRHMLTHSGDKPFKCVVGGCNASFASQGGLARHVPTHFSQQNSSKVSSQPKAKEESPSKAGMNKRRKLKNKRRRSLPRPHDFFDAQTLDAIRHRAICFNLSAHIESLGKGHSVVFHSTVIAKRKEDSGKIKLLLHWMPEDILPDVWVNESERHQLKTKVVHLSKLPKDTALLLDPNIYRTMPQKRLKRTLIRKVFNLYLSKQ
purified human, His-tagged PRC2 complex, sequence (Q09028 whole entry partner): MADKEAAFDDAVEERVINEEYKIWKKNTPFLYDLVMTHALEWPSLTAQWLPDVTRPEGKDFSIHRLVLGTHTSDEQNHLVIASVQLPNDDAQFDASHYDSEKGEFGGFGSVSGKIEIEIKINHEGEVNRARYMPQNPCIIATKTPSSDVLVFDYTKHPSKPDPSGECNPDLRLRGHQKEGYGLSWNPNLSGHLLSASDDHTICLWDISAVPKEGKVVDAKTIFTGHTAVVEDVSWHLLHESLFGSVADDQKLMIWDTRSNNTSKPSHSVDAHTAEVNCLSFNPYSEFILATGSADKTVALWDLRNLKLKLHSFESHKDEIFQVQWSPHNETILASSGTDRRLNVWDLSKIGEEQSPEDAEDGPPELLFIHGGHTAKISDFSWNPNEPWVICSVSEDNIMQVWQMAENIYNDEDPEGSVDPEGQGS

IC50 [1]: 0.1 to 0.5 µM
% F cells (live cells with fetal hemoglobin) [2]: 30-40%
Compound: Cc1cc(CN(C)C)ccc1-c1cnc(NCc2c(F)ccc3c2CCO3)n2cc(C#N)nc12 [Example 32]
fold increase in % F cells ([2]; 15.625 nM to 1 μM, vs vehicle): 2.6-2.7 fold
fold increase in HBG1 mRNA levels (HBG1 mRNA; Donor A): 4 fold
fold increase in HBG1 mRNA levels (HBG1 mRNA; Donor B): 4 fold
fold increase in HBG2 mRNA levels (HBG2 mRNA; Donor A): 9 fold
fold increase in HBG2 mRNA levels (HBG2 mRNA; Donor B): 4 fold
